Data set [1] can be described thus: Phase 2 trial: anti-fXa activity (chromogenic assay) after apixaban and r-Antidote. It counts as in vivo, human. Particulars: apixaban 5 mg bid (11 doses). The text has this:
(§1) Pharmacodynamic and safety data are collected through Day 48 and PK through Day 10. A chromogenic assay was used to determine anti-fXa activity.

Data set [2] in a line: Total and unbound fXa inhibitor plasma concentration in rats. Particulars: for fraction unbound: intravenous. The data set is classed as in vivo, rat. The procedure:
Total rivaroxaban plasma concentration at different time points from FIG. 10A was determined by LC-MS (solid line).
Similar experiments were carried out using betrixaban and apixaban infusion into anesthetized rats (FIG. 10B and FIG. 10C).
Blood sampling catheter patency was maintained by slow infusion of normal saline. Serial blood samples were obtained during the experimental time course. Total fXa inhibitor concentration was measured by HPLC with tandem mass spectrometry.

Data set [3] in a line: Phase 2 trial: plasma concentrations. Particulars: apixaban 5 mg bid.
Source text: as §1

Data set [4] concerns blood loss. Kind of data set: Mouse tail transection blood loss model. It counts as in vivo. Particulars: for blood loss: 15 min, mean±SD, rivaroxaban 50 mg/kg oral, ASA ~100 mg/kg/day 5 days, treatment as labelled. On the procedure:
Mice (n=5-8/group) were first dosed orally with vehicle or aspirin at ˜100 mg/kg/day for 5 days. Rivaroxaban (50 mg/kg) or vehicle (5 mL/kg) was then dosed orally.
For the mouse tail transection blood loss model, mice (male, C57BL/6, Charles River) were first treated with aspirin at ˜100 mg/kg/day for 5 days via drinking water.

Data set [5] has as its system prothrombin time (PT). Kind of data set: Prothrombin time in human plasma in vitro. Particulars: rivaroxaban 1 μM. It counts as biochemical. On the procedure:
(§2) For human in vitro and rat ex vivo experiments, PT was measured using MLA Electra 800 automatic coagulation timer. Innovin was automatically dispensed to plasma samples (100 μL) per manufacturer's instructions. […] For rabbit experiments, PT and aPTT were measured using a Beckman Coulter ACL Elite instrument with HemosIL reagents (available commercially from Instrumentation Laboratories). Whole blood INR (International Normalized Ratio) for animal samples were measured by Hemchron Jr. Signature Cartridges (International Technidyne Corporation) according to manufacturer's instructions.

Data set [6] can be described thus: Total and free rivaroxaban concentration in rabbit plasma. It counts as in vivo. Particulars: for concentration at 30 min: male, NZW, rabbit, plasma. On the procedure: (§3) Anesthetized rabbits were administered vehicle or 1 mg/kg rivaroxaban via IV bolus injection. […] Total rivaroxaban concentration in plasma was measured by LC-MS/MS. […] Anti-fXa activity was measured using a modified chromogenic LMW heparin kit. PT and aPTT was measured using commercial reagents (HemosIL).
(§4) Rivaroxaban (1 mg/kg) or vehicle was dosed to anesthetized rabbits by IV bolus over 2 minutes via marginal ear vein catheter. […] Serial blood samples were collected at 0, 30, 35, and 50 minutes post rivaroxaban. Measurements included reduction in blood loss, decrease in unbound rivaroxaban in the plasma using equilibrium dialysis method, anti-fXa activity, PT and aPTT. The method for measuring PT is described previously in Example 6.

Data set [7] concerns prothrombin time (PT). Kind of data set: Prothrombin time in rabbit liver laceration model. It counts as in vivo. Particulars: for prolongation of PT: rivaroxaban 1 mg/kg, 30 min time point. On the procedure: as §3, §2, §4
In data set [8] the test system is activated partial thromboplastin time (aPTT). Kind of data set: Activated partial thromboplastin time in rabbit liver laceration model. The data set is classed as in vivo. Particulars: for prolongation of aPTT: rivaroxaban 1 mg/kg, 30 min time point. The procedure:
as §3, §2, §4

For data set [9], the system named is blood loss. Kind of data set: Rabbit liver laceration blood loss model. It counts as in vivo. Particulars: for increase in blood loss compared with vehicle: rivaroxaban 1 mg/kg IV bolus. The procedure:
Rivaroxaban (1 mg/kg) or vehicle was dosed by IV bolus over 2 minutes via marginal ear vein catheter. […] Riva=Rivaroxaban; g=gram
as §3
Anesthetized rabbits were administered vehicle or 1 mg/kg rivaroxaban via IV bolus injection. […] As in the rodent model, total and free rivaroxaban concentration in plasma, anti-fXa activity and PT and activated partial thromboplastin times (aPTT) was measured.
as §4

A short description of data set [10]: Total rivaroxaban concentration in mouse plasma. Particulars: following r-Antidote administration (Treat-V).
The test system of data set [11] is blood loss. Kind of data set: Rat tail transection model, r-Antidote bolus plus infusion after enoxaparin or fondaparinux. The data set is classed as in vivo. Particulars: fondaparinux 25 mg/kg; protamine 0.9 mg/rat IV bolus; p=0.39.
Method: Enoxaparin (4.5 mg/kg) or vehicle was dosed by IV bolus over 5 min, followed by treatment with vehicle or two different doses of r-Antidotc (2 mg/rat bolus plus 2 mg/hr infusion and 4 mg/rat bolus plus 4 mg/hr infusion) starting at 10 min. […] Protamine was dosed as an IV bolus only (0.9 mg/rat). […] Anti-fXa activity was normalized to the activity of Treat-II at 5 min time point. *** P-value (Treat-III vs. Treat-II)≤0.0001.
The collected blood samples were processed by freezing the samples at −80° C. to lyse erythrocytes. Hemoglobin concentration and corresponding blood volume were quantified spectrophotometrically (Absorbance at 490 nm) from a standard curve constructed with known volumes of blood.
For data set [12], the system named is blood loss. Kind of data set: Rat tail transection treatment model, r-Antidote given after bleeding initiated. It counts as in vivo. Particulars: enoxaparin-treated group. On the procedure:
In a pilot study using this antidote treatment model, anesthetized rats were intravenously (IV) administered either vehicle or enoxaparin (4.5 mg/kg, IV bolus) followed by tail transection at 5 min post-dosing.
Anesthetized rats were administered enoxaparin (4.5 mg/kg) or vehicle by I.V. bolus injection followed by tail transection (2 mm from tip) 5 minutes later. […] The tip of the tail was placed in physiologic saline at 37° C. and blood collected for an additional 45 minutes after tail transection. Blood was lysed by diluting in water and freezing at −80° C. overnight. […] Anti-fXa activity of enoxaparin was measured using a modified chromogenic LMW heparin kit. Tissue factor (TF)-initiated thrombin generation was carried out in human plasma using a fluorogenic thrombin substrate by measurement of change of relative fluorescence unit (RFU) for 10 min following initiation of the reaction.

[13] abbreviates: upon administration of r-Antidote.
The mark [14] stands for this setting: 30 minutes post rivaroxaban (before treatment).

Several values for one entry are separate records, joined by “and”; a condition that tells them apart may be missing. Equal entries are not always repeated.

In the case of `COc1ccc(-n2nc(C(N)=O)c3c2C(=O)N(c2ccc(N4CCCCC4=O)cc2)CC3)cc1` [apixaban], the “time of peak anti-fXa activity post last apixaban dose” value in data set [1] stood at 3 h. This molecule also returned a fraction unbound in data set [2] (male, SD, rat, plasma) of 0.0005. In [2] (male, SD, rat, plasma, iv), this molecule displayed a concentration at 30 min of 1400 nM and a fraction unbound at 30 min of 0.015. The concentration at 30 min in [2] (setting [13]) was 4200 nM. In data set [3], the “mean apixaban plasma concentration” value is reported as 474 nM.

Molecule `CC(=O)Oc1ccccc1C(=O)O` [aspirin] came in with a blood loss in the data set with blood loss [4] of 118 ± 71 µL.

Molecule `COc1ccc(NC(=O)c2ccc(C(=N)N(C)C)cc2)c(C(=O)Nc2ccc(Cl)cn2)c1` [betrixaban] returned a fraction unbound in data set [2] (male, SD, rat, plasma) of 0.003. For the same molecule, in data set [2] (male, SD, rat, plasma, iv), the concentration at 30 min was 200 nM and the fraction unbound at 30 min worked out at 0.41. The same molecule returned a concentration at 30 min in [2] (setting [13]) of 2000 nM.

For `O=C(NC[C@H]1CN(c2ccc(N3CCOCC3=O)cc2)C(=O)O1)c1ccc(Cl)s1` [rivaroxaban], the blood loss with blood loss [4] was determined as 216 ± 222 µL; in the data set with blood loss [9] (rivaroxaban group, 15 min collection) it was 22.7±9.3 grams. Besides, in the data set with blood loss [4] (ASA-treated mice (~100 mg/kg/day, 5 days), single oral Riva 50 mg/kg, Riva+ASA vs. ASA), the “increase in blood loss” value was 3.4 fold. In addition, the “effect on prothrombin time” value in the data set with prothrombin time (PT) [5] was “prolongation of prothrombin time”. Besides, the “free (non-protein bound) fraction of rivaroxaban in plasma” value is listed as below 0.5% in data set [6] (after r-Antidote 75 mg/rabbit) and 26% in data set [6] (before r-Antidote). The concentration at 30 min in data set [6] (intravenous, 1 mg/kg, just prior to treatment, dose group as labelled) is 1200 nM; in [6] (30 min time point, 1 mg/kg IV) it was 1650 nM; in data set [2] (male, SD, rat, plasma, iv), 1400 nM; in [2] (setting [13]) it was 1900 nM. In addition, the “Prothrombin Times” value in the data set with prothrombin time (PT) [7] (0 minutes post rivaroxaban) stood at 6.2 ± 0.4 s; in the data set on prothrombin time (PT) [7] (setting [14]), 15.8 ± 1.5 s; in the data set on prothrombin time (PT) [7] (35 minutes post rivaroxaban) it was 15.0 ± 1.6 s; in the data set with prothrombin time (PT) [7] (50 minutes post rivaroxaban), 13.8 ± 1.3 s. Also, the “prolongation of PT” value is 2.3 fold and 2.5 fold in the data set on prothrombin time (PT) [7]; 2.3 fold in the data set with prothrombin time (PT) [7] (listed as Rivaroxaban). Further, the “Activated Partial Thromboplastin Times” value in data set [8] (0 minutes post rivaroxaban) turned out to be 28 ± 5 s; in data set [8] (setting [14]) it was 49 ± 8 s; in [8] (35 minutes post rivaroxaban), 48 ± 8 s; in data set [8] (50 minutes post rivaroxaban), 48 ± 8 s. Also, the “prolongation of aPTT” value was 1.9 fold and 1.8 fold in data set [8]; 1.9 fold in data set [8] (listed as Rivaroxaban). In addition, in the data set with blood loss [9] (rivaroxaban 1 mg/kg), the “blood loss due to rivaroxaban anticoagulation as share of total blood volume” value was “approximately 10%”. Moreover, the “increase in blood loss compared with vehicle” value with blood loss [9] was 3.2 fold and > 3 fold; in the data set on blood loss [9] (listed as Rivaroxaban), 3.2 fold. The same molecule registered a fraction unbound at 30 min in [2] (male, SD, rat, plasma, iv) of 0.022. Besides, in [10], the “increase of total rivaroxaban concentration in plasma” value came to 7.8 fold.

With Protamine, the “effect on fondaparinux anticoagulation” value with blood loss [11] is listed as “no statistically significant effect”.

For the molecule enoxaparin, in the data set on blood loss [12], the “share of blood loss occurring within first 10 min prior to treatment” value was around 26% and the “total blood loss as share of animal's total blood volume” value was “about 5%”.

As usually defined, the fraction unbound is free concentration divided by total concentration. Read a high fraction unbound as weak binding.

Values taken from patent publication US20200129597A1, “MODULATION OF FACTOR Xa INHIBITOR-MEDIATED BLOOD LOSS BY PARTIAL AND TRANSIENT ADMINISTRATION OF ANTIDOTE” (Portola Pharmaceuticals, Inc., priority 2012, published 2020).
